Source: US8138205B2, “Heteroarylalkoxy-substituted quinolone inhibitors of PDE4” (Kalypsys, Inc., priority 2006, dated 2012)

What was measured:
PDE4B = target: T1, PDE4B (Homo sapiens, UniProt Q07343); experiment: PDE/AK Biological Activity Assay (coupled PDE/adenylate kinase bioluminescent assay); format: biochemical; conditions: catalytic domain of PDE4B, read-out: PDE4 Enzyme IC50
T1 construct: hex-histidine (His6) (N); made in house
Excerpt: Phosphodiesterases regulate the activity of the second messenger cyclic adenosine monophosphate (cAMP) by hydrolyzing cAMP to adenosine monophosphate (AMP). We developed a coupled PDE/AK bioluminescent high-throughput assay to measure the activity of phosphodiesterases. In the PDE/AK assay, the AMP produced from the hydrolysis of cAMP by phosphodiesterase is converted to adenosine diphosphate (ADP) by the phosphotransferase activity of adenylate kinase (also known as ADK or myokinase). Adenylate kinase will catalyze the conversion of 1 mole of AMP and 1 mole of ATP into 2 moles of ADP. Thus the conversion of AMP to ADP will result in the subsequent loss of ATP. The decrease in ATP concentration can be monitored as light output using luciferase in a reaction that requires ATP to produce light. The PDE/AK assay uses luciferase, which catalyzes the production of light from ATP present in the reaction mix. The amount of emitted light is inversely proportional to the level of AMP present in the reaction. Test compounds are incubated with the phosphodiesterases and phosphodiesterase inhibitors will decrease the rate of cAMP hydrolysis and decrease the subsequent production of AMP. Thus phosphodiesterase inhibitors will decrease the conversion of ATP to ADP and result in the greatest emission of light.
Compounds may be screened for functional potency in in vitro biochemical assays for their ability to inhibit the activity of phosphodiesterase (PDE) enzymes. A coupled PDE/AK assay was utilized to measure the inhibitory activity of compounds on PDE isoforms. The catalytic domain of PDE4B was fused to an amino-terminus hex-histidine affinity tag and purified. PDE4B enzyme was incubated with compounds for 10 minutes. Cyclic AMP substrate, ATP and adenylate kinase were then added to the PDE enzyme mix and incubated for 45 minutes at room temperature. A commercial ATP detection assay, Perkin Elmer's easyLite ATP detection reagent, was then added to measure the relative amount of ATP present in the reaction. After 10 minute incubation, the luminescent signal was quantitated with either the Perkin Elmer Viewlux or Molecular Devices Acquest or Analyst. Roflumilast and Rolipram are the positive controls used in the assay.

Solubility Protocol = format: physicochemical; conditions: aqueous buffer, thermodynamic from solid; pH 7.4, 0.1 M sodium phosphate buffer
Experimental: About 5 mg of a compound was mixed with 500 μL of pH 7.4, 0.1 M sodium phosphate buffer. The mixture was adjusted to the original pH of 7.4 and then mixed overnight or longer via rotary mixing. The sample was checked for pH and then filtered through a 0.45 μm filter. If the pH drifted away, the sample was adjusted to its original pH and mixed for at least 15 minutes before filtration. The filtrate was analyzed using HPLC.

Stability Protocol = format: physicochemical; conditions: pH 7.4 sodium phosphate buffer, preliminary shelf life (T90) estimated from stressed samples
Experimental: About 3 mg of a compound was dissolved in 3 mL of acetonitrile/water mixture (50/50). 100 μL of the stock solution was added to 20 mL each of 0.025 M pH 5.0 sodium acetate buffer (A5.0), 0.025 M pH 5.0 citrate buffer (C5.0) and 0.025 M pH 7.4 sodium phosphate buffer (P7.4). A two mL aliquot of each solution was kept in a glass vial equipped a cap lined with Teflon. Two vials containing the solution were stored at 4° C. or −20° C. as control. Other aliquots were stressed at RT, 45° C. or 75° C. for specified time check points, e.g. 1 day, 1 w, 2 w, 4 w, 8 w,12 w. The stressed samples in duplicate were assayed against the control using HPLC. The results were reported in % degradation. Preliminary shelf life (T90) was estimated assuming the rate of chemical degradation is double when the temperature is up 10° C.

T1 sequence (Q07343 330-659 limits assumed, species assumed): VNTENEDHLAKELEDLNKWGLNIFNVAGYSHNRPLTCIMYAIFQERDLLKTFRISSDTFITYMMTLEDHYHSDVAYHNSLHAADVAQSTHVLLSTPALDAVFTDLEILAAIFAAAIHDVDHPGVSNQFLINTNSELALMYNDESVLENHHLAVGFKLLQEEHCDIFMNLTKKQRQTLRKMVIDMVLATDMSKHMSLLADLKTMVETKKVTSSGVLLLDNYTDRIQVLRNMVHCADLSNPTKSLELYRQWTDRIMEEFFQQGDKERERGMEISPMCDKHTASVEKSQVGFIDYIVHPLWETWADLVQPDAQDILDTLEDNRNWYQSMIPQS

| SMILES | IC50 (PDE4B) [nM] | solubility (Solubility Protocol) [µg/mL] | Stability, pH 7.4 (Stability Protocol) |
| --- | --- | --- | --- |
| COc1ccc2c(Nc3c(Cl)cncc3Cl)cc(=O)[nH]c2c1OCCCCCC(=O)O [Example 11, 6-(4-(3,5-Dichloropyridin-4-ylamino)-7-methoxy-2-oxo-1,2-dihydroquinolin-8-yloxy)hexanoic acid] |  | ≥ 1000 | + (+ indicates ≧1 Year) |
| COc1ccc2c(Nc3c(Cl)cncc3Cl)cc(=O)[nH]c2c1OCCCCC(N)=O [Example 57, 5-(4-(3,5-dichloropyridin-4-ylamino)-7-methoxy-2-oxo-1,2-dihydroquinolin-8-yloxy)pentanamide] | < 1000 | ≥ 1000 | + (+ indicates ≧1 Year) |
| COc1ccc2c(Nc3c(Cl)cncc3Cl)cc(=O)[nH]c2c1OCCCCCCN1CCOCC1 [Example 16, 4-(3,5-Dichloropyridin-4-ylamino)-7-methoxy-8-(6-morpholinohexyloxy)quinolin-2(1H)-one] | < 1000 | ≥ 1000 | + (+ indicates ≧1 Year) |
| COc1ccc2c(Nc3c(Cl)cncc3Cl)cc(=O)[nH]c2c1OCCCCCCCCN1CCN(C)CC1 [Example 21, 4-(3,5-dichloropyridin-4-ylamino)-7-methoxy-8-(8-(4-methylpiperazin-1-yl)octyloxy)quinolin-2(1H)-one] | < 1000 | ≥ 1000 | + (+ indicates ≧1 Year) |
| COc1ccc2c(Nc3c(Cl)cncc3Cl)cc(=O)[nH]c2c1OCCCCCCCN1CCN(C)CC1 [Example 20, 4-(3,5-dichloropyridin-4-ylamino)-7-methoxy-8-(7-(4-methylpiperazin-1-yl)heptyloxy)quinolin-2(1H)-one] | < 1000 | ≥ 1000 | + (+ indicates ≧1 Year) |
| COc1ccc2c(Nc3c(Cl)cncc3Cl)cc(=O)[nH]c2c1OCCCCCN(C)C [Example 14, 4-(3,5-Dichloropyridin-4-ylamino)-8-(5-(dimethylamino)pentyloxy)-7-methoxyquinolin-2(1H)-one] |  | ≥ 1000 | + (+ indicates ≧1 Year) |
| COc1ccc2c(Nc3c(Cl)cncc3Cl)cc(=O)[nH]c2c1OCCCCCCC(=O)O [Example 53, 7-(4-(3,5-dichloropyridin-4-ylamino)-7-methoxy-2-oxo-1,2-dihydroquinolin-8-yloxy)heptanoic acid] | < 1000 | ≥ 1000 | + (+ indicates ≧1 Year) |
| COc1ccc2c(Nc3c(Cl)cncc3Cl)cc(=O)[nH]c2c1OCCCCCCCC(=O)O [Example 54, 8-(4-(3,5-dichloropyridin-4-ylamino)-7-methoxy-2-oxo-1,2-dihydroquinolin-8-yloxy)octanoic acid] | < 1000 | ≥ 1000 | + (+ indicates ≧1 Year) |
| COc1ccc2c(Nc3c(Cl)cncc3Cl)cc(=O)[nH]c2c1OCCCCCc1nn[nH]n1 [Example 69, 8-(5-(2H-tetrazol-5-yl)pentyloxy)-4-(3,5-dichloropyridin-4-ylamino)-7-methoxyquinolin-2(1H)-one] | < 1000 |  | + (+ indicates ≧1 Year) |

Further lines, results first:

| IC50 (PDE4B) [nM] | solubility (Solubility Protocol) [µg/mL] | Stability, pH 7.4 (Stability Protocol) | SMILES |
| --- | --- | --- | --- |
| < 1000 | ≥ 1000 | + (+ indicates ≧1 Year) | COc1ccc2c(Nc3c(C)cncc3C)cc(=O)[nH]c2c1OCCCCCCN1CCOCC1 [Example 35, 4-(3,5-Dimethylpyridin-4-ylamino)-7-methoxy-8-(6-morpholinohexyloxy)quinolin-2(1H)-one] |
| < 1000 | ≥ 1000 | + (+ indicates ≧1 Year) | COc1ccc2c(Nc3c(Cl)cncc3Cl)cc(=O)[nH]c2c1OCCCCCCN1CCNCC1 [Example 22, 4-(3,5-Dichloropyridin-4-ylamino)-7-methoxy-8-(6-(piperazin-1-yl)hexyloxy)quinolin-2(1H)-one] |
| < 1000 | ≥ 1000 | + (+ indicates ≧1 Year) | COc1ccc2c(Nc3c(C)cncc3C)cc(=O)[nH]c2c1OCCCCCCN(C)C [Example 38, 8-(6-(Dimethylamino)hexyloxy)-4-(3,5-dimethylpyridin-4-ylamino)-7-methoxyquinolin-2(1H)-one] |
| < 1000 | ≥ 1000 | + (+ indicates ≧1 Year) | COc1ccc2c(Nc3c(Cl)cncc3Cl)cc(=O)[nH]c2c1OCCCN1CCOCC1 [Example 19, 4-(3,5-dichloropyridin-4-ylamino)-7-methoxy-8-(3-morpholinopropoxy)quinolin-2(1H)-one] |
| < 1000 | ≥ 1000 | + (+ indicates ≧1 Year) | COc1ccc2c(Nc3c(Cl)cncc3Cl)cc(=O)[nH]c2c1OCCCN1CCN(C)CC1 [Example 18, 4-(3,5-dichloropyridin-4-ylamino)-7-methoxy-8-(3-(4-methylpiperazin-1-yl)propoxy)quinolin-2(1H)-one] |
| < 1000 | ≥ 1000 | + (+ indicates ≧1 Year) | COc1ccc2c(Nc3c(Cl)cncc3Cl)cc(=O)[nH]c2c1OCCCCCCN1CCN(C)CC1 [Example 15, 4-(3,5-Dichloropyridin-4-ylamino)-7-methoxy-8-(6-(4-methylpiperazin-1-yl)hexyloxy)quinolin-2(1H)-one] |
| < 1000 | ≥ 1000 | + (+ indicates ≧1 Year) | COc1ccc2c(Nc3c(Cl)cncc3Cl)cc(=O)[nH]c2c1OCCCCCC(N)=O [Example 58, 6-(4-(3,5-dichloropyridin-4-ylamino)-7-methoxy-2-oxo-1,2-dihydroquinolin-8-yloxy)hexanamide] |
| < 1000 | ≥ 1000 | + (+ indicates ≧1 Year) | COc1ccc2c(Nc3c(Cl)cncc3Cl)cc(=O)[nH]c2c1OCCCC(N)=O [Example 56, 4-(4-(3,5-dichloropyridin-4-ylamino)-7-methoxy-2-oxo-1,2-dihydroquinolin-8-yloxy)butanamide] |
| < 1000 | ≥ 1000 | + (+ indicates ≧1 Year) | COc1ccc2c(Nc3c(Cl)cncc3Cl)cc(=O)[nH]c2c1OCCCCC(=O)O [Example 52, 5-(4-(3,5-dichloropyridin-4-ylamino)-7-methoxy-2-oxo-1,2-dihydroquinolin-8-yloxy)pentanoic acid] |
